In assay [1] the target is Calcium/calmodulin-dependent protein kinase type II subunit alpha (Homo sapiens) (UniProt Q9UQM7). As to the kind of experiment: Inhibition of human CaMK2alpha at 10 uM relative to control.
Assay [2] addresses High affinity nerve growth factor receptor (Homo sapiens) (UniProt P04629). As to the kind of experiment: Inhibition of human TRKA at 10 uM relative to control.
Assay [3] concerns the target D(1B) dopamine receptor (Homo sapiens) (UniProt P21918). Description: Inhibition of human D(5) dopamine receptor expressed in HEK293T cells at 10 uM relative to control. The class given is cell-based.
Assay [4] has as its system LNCaP. Description: Cytotoxicity against human LNCaP cells assessed as cell viability upto 12.5 uM incubated for 48 hrs. In kind it is functional, cell-based.
Assay [5] relates to U2OS. As to the kind of experiment: Inhibition of colony formation in human U2OS cells at 1 uM incubated for 48 hrs in the presence of hydroxyurea by cell clonogenic assay. The class given is functional, cell-based.
Assay [6] has as its target Rho-associated protein kinase 1 (Homo sapiens) (UniProt Q13464). As to the kind of experiment: Inhibition of human ROCK1 at 10 uM relative to control.
The target in assay [7] is Serine/threonine-protein kinase PAK 4 (Homo sapiens) (UniProt O96013). As to the kind of experiment: Inhibition of human PAK4 at 10 uM relative to control.
Sequence of Serine/threonine-protein kinase PAK 4 (Homo sapiens) (O96013 whole entry, looked up, the tested form may be a part): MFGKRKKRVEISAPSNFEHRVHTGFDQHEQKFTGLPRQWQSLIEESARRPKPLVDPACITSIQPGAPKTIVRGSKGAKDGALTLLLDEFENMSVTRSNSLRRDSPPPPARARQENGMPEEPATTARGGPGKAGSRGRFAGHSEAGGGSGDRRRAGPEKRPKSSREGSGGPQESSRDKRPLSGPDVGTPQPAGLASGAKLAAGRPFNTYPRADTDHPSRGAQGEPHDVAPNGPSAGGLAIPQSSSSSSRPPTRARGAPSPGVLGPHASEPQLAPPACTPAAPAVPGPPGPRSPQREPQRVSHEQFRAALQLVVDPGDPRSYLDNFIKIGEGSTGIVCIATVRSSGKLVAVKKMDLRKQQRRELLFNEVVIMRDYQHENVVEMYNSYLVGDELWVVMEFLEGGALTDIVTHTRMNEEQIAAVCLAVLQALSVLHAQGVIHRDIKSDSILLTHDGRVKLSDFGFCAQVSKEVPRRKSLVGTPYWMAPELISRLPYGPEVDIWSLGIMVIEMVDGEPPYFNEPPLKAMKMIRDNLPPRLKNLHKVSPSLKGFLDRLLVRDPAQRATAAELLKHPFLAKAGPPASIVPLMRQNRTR
The target in assay [8] is Histone-lysine N-methyltransferase KMT5B (Homo sapiens) (UniProt Q4FZB7). Description: Binding affinity to recombinant human 6His-(Tev)-G-SUV420H1 (69 to 335 residues) assessed as increase thermal stability by measuring change in melting temperature at 50 uM by thermal shift assay.
Sequence of Histone-lysine N-methyltransferase KMT5B (Homo sapiens) (Q4FZB7 whole entry, looked up, the tested form may be a part): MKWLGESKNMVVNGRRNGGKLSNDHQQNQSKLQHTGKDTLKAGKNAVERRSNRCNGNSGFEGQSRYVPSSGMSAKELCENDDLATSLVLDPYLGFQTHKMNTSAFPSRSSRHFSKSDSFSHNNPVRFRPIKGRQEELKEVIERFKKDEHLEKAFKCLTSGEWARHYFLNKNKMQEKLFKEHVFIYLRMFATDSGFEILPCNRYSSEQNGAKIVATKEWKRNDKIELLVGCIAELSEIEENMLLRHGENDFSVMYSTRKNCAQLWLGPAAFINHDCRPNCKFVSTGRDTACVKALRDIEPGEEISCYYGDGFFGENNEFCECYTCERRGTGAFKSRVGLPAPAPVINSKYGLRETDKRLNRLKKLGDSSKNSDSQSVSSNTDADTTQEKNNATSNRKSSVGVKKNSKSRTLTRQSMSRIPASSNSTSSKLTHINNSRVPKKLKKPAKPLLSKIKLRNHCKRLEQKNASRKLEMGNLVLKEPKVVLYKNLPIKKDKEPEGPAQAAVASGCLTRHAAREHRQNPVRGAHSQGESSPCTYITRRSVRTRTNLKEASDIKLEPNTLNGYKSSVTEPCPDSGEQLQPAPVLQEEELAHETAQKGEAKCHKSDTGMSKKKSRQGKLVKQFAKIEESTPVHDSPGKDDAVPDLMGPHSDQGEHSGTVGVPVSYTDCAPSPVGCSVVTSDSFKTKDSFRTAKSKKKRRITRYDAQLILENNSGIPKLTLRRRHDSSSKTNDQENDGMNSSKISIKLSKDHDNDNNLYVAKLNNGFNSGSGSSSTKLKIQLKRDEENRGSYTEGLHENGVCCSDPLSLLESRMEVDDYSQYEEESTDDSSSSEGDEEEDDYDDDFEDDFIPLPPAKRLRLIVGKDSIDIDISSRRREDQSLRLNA
The target in assay [9] is Mitogen-activated protein kinase 1 (Homo sapiens) (UniProt P28482). As to the kind of experiment: Inhibition of human ERK2 at 10 uM relative to control.
Assay [10] relates to U2OS. Description: Inhibition of colony formation in human U2OS cells at 1 uM incubated for 48 hrs in the presence of etoposide by cell clonogenic assay. The class given is functional, cell-based.
The target of assay [11] is Protein arginine N-methyltransferase 8 (Homo sapiens) (UniProt Q9NR22). As to the kind of experiment: Inhibition of PRMT8 (unknown origin) using Biotin-tagged H4K20me1 and [3H-SAM] as substrate at 1 to 10 uM incubated for 2 hrs by scintillation proximity assay. The note with it: dose 1-10 µM.
Sequence of Protein arginine N-methyltransferase 8 (Homo sapiens) (Q9NR22 2-394 limits assumed): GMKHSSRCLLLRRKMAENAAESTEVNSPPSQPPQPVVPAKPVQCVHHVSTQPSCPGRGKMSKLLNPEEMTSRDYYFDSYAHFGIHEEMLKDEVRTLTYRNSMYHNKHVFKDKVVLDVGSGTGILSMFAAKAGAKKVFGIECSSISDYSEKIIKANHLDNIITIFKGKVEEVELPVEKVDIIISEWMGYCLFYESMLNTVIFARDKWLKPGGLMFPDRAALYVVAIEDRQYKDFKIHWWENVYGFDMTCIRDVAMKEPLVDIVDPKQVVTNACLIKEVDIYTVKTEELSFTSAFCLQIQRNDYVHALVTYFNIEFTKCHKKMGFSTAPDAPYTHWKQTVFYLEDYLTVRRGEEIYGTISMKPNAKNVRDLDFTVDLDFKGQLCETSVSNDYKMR
Assay [12] deals with U2OS. Description: Inhibition of colony formation in human U2OS cells at 1 uM incubated for 48 hrs in the presence of olaparib by cell clonogenic assay. The class given is functional, cell-based.
Assay [13] has as its target Serine/threonine-protein kinase PAK 2 (Homo sapiens) (UniProt Q13177). Description: Inhibition of human PAK2 at 10 uM relative to control.
Assay [14] has as its target Histone-lysine N-methyltransferase KMT5B (Homo sapiens) (UniProt Q4FZB7). Description: Inhibition of recombinant human 6His-(Tev)-G-SUV420H1 (69 to 335 residues) using Biotin-tagged H4K20me1 and [3H-SAM] as substrate at 10 uM incubated for 2 hrs by scintillation proximity assay. On the technique in general: Scintillation proximity formats need no separation of bound from free tracer.

For assay [15], the target named is Histone-lysine N-methyltransferase SETD7 (Homo sapiens) (UniProt Q8WTS6). As to the kind of experiment: Inhibition of SETD7 (unknown origin) using Biotin-tagged H4K20me1 and [3H-SAM] as substrate at 1 to 10 uM incubated for 2 hrs by scintillation proximity assay. The note with it: dose 1-10 µM.
Sequence of Histone-lysine N-methyltransferase SETD7 (Homo sapiens) (Q8WTS6 whole entry): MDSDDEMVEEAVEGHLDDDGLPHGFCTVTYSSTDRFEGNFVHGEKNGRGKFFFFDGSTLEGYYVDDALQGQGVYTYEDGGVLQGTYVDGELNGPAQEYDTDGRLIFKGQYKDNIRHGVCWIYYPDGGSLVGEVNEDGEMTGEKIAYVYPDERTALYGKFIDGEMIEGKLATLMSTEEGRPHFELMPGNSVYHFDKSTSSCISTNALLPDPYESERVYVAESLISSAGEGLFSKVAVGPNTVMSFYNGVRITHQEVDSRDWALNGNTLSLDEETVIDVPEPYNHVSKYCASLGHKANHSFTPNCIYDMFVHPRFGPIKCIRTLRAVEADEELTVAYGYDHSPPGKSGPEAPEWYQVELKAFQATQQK
Assay [16] deals with Histone-lysine N-methyltransferase, H3 lysine-36 specific (Homo sapiens) (UniProt Q96L73). As to the kind of experiment: Inhibition of NSD1 (unknown origin) at 1 to 10 uM incubated for 1 hrs by scintillation proximity assay. The conditions noted are these: dose 1-10 µM.
For assay [17], the target named is N-lysine methyltransferase SMYD2 (Homo sapiens) (UniProt Q9NRG4). Description: Inhibition of SMYD2 (unknown origin) using Biotin-tagged H4K20me1 and [3H-SAM] as substrate at 1 to 10 uM incubated for 2 hrs by scintillation proximity assay. The conditions noted are these: dose 1-10 µM.
Assay [18] addresses Cyclin-dependent kinase 1 (Homo sapiens) (UniProt P06493). As to the kind of experiment: Inhibition of human CDC2 at 10 uM relative to control.
Assay [19] concerns the target Histone-lysine N-methyltransferase EHMT1 (Homo sapiens) (UniProt Q9H9B1). As to the kind of experiment: Inhibition of EHMT1 (unknown origin) using Biotin-tagged H4K20me1 and [3H-SAM] as substrate at 1 to 10 uM incubated for 2 hrs by scintillation proximity assay. The conditions noted are these: dose 1-10 µM.
Assay [20] deals with Histone-lysine N-methyltransferase, H3 lysine-79 specific (Homo sapiens) (UniProt Q8TEK3). As to the kind of experiment: Inhibition of DOT1L (unknown origin) at 1 to 10 uM incubated for 1 hrs by scintillation proximity assay. The note with it: dose 1-10 µM.
The target in assay [21] is Histone-lysine N-methyltransferase KMT5B (Homo sapiens) (UniProt Q4FZB7). As to the kind of experiment: Inhibition of recombinant human 6His-(Tev)-G-SUV420H1 (69 to 335 residues) using Biotin-tagged H4K20me1 and [3H-SAM] as substrate at 1 uM incubated for 2 hrs by scintillation proximity assay.
Assay [22] concerns LNCaP. As to the kind of experiment: Cytotoxicity against human LNCaP cells assessed as cell viability at 1.5 to 100 uM incubated after 72 hrs. The class given is functional, cell-based. The conditions noted are these: dose 1.5-100 µM.
The target in assay [23] is Protein arginine N-methyltransferase 1 (Homo sapiens) (UniProt Q99873). Description: Inhibition of PRMT1 (unknown origin) using Biotin-tagged H4K20me1 and [3H-SAM] as substrate at 1 to 10 uM incubated for 2 hrs by scintillation proximity assay. The conditions noted are these: dose 1-10 µM.
Assay [24] deals with cAMP-dependent protein kinase (PKA) (Homo sapiens) (UniProt P22694+P17612+P22612). As to the kind of experiment: Inhibition of human PKA at 10 uM relative to control. The class given is protein assay.
The target in assay [25] is Histone-lysine N-methyltransferase NSD3 (Homo sapiens) (UniProt Q9BZ95). Description: Inhibition of NSD3 (unknown origin) at 1 to 10 uM incubated for 1 hrs by scintillation proximity assay. The note with it: dose 1-10 µM.
Assay [26] concerns the target Mitogen-activated protein kinase 8 (Homo sapiens) (UniProt P45983). As to the kind of experiment: Inhibition of human JNK1 at 10 uM relative to control.
For assay [27], the target named is Protein kinase C beta type (Homo sapiens) (UniProt P05771). As to the kind of experiment: Inhibition of human PKCbeta 2 at 10 uM relative to control.
Assay [28] deals with Histone-lysine N-methyltransferase KMT5B (Homo sapiens) (UniProt Q4FZB7). As to the kind of experiment: Binding affinity to recombinant human 6His-(Tev)-G-SUV420H1 (69 to 335 residues) assessed as increase thermal stability by measuring change in melting temperature at 50 uM in the presence of SAM by thermal shift assay.
The target of assay [29] is Tyrosine-protein kinase ABL1 (Homo sapiens) (UniProt P00519). As to the kind of experiment: Inhibition of human Abl at 10 uM relative to control.
In assay [30] the test system is U2OS. As to the kind of experiment: Induction of DNA repair in human U2OS cells expressing I-SceI reporter assessed as substantially inhibition in NHEJ-mediated repair at 1 uM by flow cytometry analysis. The class given is functional, cell-based. On the technique in general: In flow cytometry, cells or beads pass a laser one at a time.
For assay [31], the target named is Cyclin-dependent kinase 2 (Homo sapiens) (UniProt P24941). Description: Inhibition of human CDK2 at 10 uM relative to control.
In assay [32] the target is Histone-lysine N-methyltransferase KMT5C (Homo sapiens) (UniProt Q86Y97). Description: Inhibition of human SUV420H2 using Biotin-tagged H4K20me1 and [3H-SAM] as substrate incubated for 2 hrs by scintillation proximity assay.
The test system of the next assay is MEF. As to the kind of experiment: Antiproliferative activity against mouse MEF cells assessed as change in H4K20me1 at 10 uM incubated for 3 days by immunofluorescence analysis. In kind it is functional, cell-based. The conditions noted are these: time 3.0 day.
Assay [33] has as its target Histone-lysine N-methyltransferase KMT5B (Homo sapiens) (UniProt Q4FZB7). Description: Inhibition of recombinant human 6His-(Tev)-G-SUV420H1 (69 to 335 residues) using Biotin-tagged H4K20me1 and [3H-SAM] as substrate incubated for 2 hrs by scintillation proximity assay.

Calls of active or inactive are those of the source. The rule behind the calls is not given here.

Sequence of Serine/threonine-protein kinase PAK 2 (Homo sapiens) (Q13177 whole entry, the tested form may be a part): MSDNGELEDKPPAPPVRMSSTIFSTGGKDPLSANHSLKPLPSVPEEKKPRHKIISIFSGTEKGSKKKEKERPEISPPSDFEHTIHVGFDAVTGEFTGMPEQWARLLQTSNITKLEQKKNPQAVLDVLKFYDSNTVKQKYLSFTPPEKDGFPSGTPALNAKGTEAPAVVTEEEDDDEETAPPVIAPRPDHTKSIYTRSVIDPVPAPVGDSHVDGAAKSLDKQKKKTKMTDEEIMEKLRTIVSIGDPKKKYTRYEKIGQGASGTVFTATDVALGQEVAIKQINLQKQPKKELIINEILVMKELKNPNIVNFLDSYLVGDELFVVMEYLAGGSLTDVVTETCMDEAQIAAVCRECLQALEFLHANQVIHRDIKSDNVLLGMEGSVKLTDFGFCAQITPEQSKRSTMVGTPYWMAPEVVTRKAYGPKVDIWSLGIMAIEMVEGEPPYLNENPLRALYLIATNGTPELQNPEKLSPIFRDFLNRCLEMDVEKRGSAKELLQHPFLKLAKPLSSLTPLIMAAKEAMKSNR
Sequence of Calcium/calmodulin-dependent protein kinase type II subunit alpha (Homo sapiens) (Q9UQM7 whole entry): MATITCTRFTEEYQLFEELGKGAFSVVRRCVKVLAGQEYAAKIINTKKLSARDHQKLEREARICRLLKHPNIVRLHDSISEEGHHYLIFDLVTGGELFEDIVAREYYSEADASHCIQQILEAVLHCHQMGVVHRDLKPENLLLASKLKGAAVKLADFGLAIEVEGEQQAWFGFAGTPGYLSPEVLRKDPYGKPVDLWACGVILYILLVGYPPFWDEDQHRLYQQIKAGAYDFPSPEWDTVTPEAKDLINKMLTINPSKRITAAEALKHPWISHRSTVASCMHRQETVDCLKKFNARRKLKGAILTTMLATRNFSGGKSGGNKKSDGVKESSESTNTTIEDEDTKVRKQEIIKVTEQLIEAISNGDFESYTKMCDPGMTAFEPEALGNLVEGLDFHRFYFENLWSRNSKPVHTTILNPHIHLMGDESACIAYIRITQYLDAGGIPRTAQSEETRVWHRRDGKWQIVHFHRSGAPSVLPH
Sequence of Mitogen-activated protein kinase 8 (Homo sapiens) (P45983 whole entry): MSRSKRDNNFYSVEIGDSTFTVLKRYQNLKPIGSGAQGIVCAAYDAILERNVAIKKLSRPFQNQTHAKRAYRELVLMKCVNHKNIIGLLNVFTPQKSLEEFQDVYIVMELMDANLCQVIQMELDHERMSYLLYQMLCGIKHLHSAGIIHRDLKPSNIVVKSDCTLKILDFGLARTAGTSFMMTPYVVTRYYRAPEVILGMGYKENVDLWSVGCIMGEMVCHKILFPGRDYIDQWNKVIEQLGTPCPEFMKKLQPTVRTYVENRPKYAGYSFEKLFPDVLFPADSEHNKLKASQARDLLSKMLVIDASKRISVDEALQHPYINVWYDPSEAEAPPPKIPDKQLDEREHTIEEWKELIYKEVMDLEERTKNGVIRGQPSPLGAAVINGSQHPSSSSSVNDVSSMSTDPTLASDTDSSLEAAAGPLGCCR
Sequence of Rho-associated protein kinase 1 (Homo sapiens) (Q13464 2-1354 limits assumed): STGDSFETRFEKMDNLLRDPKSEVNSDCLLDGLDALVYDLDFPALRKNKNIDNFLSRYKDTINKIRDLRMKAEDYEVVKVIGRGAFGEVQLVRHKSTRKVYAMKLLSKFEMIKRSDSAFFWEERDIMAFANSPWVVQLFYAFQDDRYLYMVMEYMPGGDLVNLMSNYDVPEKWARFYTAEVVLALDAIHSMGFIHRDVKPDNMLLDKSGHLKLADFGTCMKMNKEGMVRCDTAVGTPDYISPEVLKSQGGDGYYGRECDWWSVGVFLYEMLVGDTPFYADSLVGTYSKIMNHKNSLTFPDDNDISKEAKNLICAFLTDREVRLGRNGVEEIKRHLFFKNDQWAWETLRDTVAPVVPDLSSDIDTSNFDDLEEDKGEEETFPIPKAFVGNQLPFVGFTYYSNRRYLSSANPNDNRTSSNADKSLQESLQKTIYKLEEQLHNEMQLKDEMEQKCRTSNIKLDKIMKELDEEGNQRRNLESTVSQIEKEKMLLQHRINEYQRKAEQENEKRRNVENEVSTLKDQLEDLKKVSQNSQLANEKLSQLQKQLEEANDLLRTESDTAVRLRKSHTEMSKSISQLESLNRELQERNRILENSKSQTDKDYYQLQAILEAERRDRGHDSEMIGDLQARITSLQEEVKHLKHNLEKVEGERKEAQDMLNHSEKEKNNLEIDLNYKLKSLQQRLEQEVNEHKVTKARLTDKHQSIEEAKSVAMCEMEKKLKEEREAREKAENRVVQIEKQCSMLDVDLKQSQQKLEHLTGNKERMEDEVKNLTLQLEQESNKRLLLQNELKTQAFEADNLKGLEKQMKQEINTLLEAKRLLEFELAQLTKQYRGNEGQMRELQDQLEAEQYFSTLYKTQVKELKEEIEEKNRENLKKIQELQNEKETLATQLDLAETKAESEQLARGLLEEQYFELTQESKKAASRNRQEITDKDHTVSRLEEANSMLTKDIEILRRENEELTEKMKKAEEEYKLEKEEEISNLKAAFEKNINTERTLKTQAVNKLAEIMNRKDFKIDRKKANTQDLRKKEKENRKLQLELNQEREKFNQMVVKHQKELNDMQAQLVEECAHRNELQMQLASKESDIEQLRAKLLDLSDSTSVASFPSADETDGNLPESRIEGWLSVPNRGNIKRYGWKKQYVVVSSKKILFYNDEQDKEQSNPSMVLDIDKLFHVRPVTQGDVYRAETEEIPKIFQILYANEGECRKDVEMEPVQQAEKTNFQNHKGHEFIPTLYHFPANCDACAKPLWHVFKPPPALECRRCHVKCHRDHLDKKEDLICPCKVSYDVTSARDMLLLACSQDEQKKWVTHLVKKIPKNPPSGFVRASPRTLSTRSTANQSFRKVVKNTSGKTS

For `Clc1cc2c(NC3CCCC3)nnc(-c3ccncc3)c2cc1Cl`, the inhibition (usually the relative decrease from the control value, in per cent) in assay [1] was -5%; in assay [2], 1%; in assay [3], -4%; in [6], -1%; in assay [7] it was -8%; in assay [9] it was 1%. Also, the inhibition in assay [13] is -2%; in [18] it was 3%; in [24], -1%; in assay [26], -8%; in assay [27], -3%; in assay [29], 2%. Further, in assay [31], the inhibition is -1%. Also, the result in the assay with LNCaP [4], in the assay on LNCaP [22] and with U2OS [30] was Active. Moreover, the inhibition result (in the assay with U2OS [5]; with U2OS [10]; with U2OS [12]; in assay [14]; in assay [21]) was “Active” in each case. Moreover, the ΔTm (as a rule, the change in melting temperature against a reference sample) in assay [8] was 6.4 °C; in assay [28] it was 12.5 °C. Further, the inhibition entry in assay [11], in assay [15], in assay [16], in assay [17], in assay [19] and in assay [20] was “inactive” in each case. Further, the inhibition entry in assay [23] and in assay [25] was “inactive” in each case.
As for `O=C(c1nnc(NC2CCCC2)c2cc(Cl)c(Cl)cc12)N1CCC(O)CC1`, the inhibition result in [32] and in assay [33] was “inactive” in each case. The outcome with MEF was inactive.

The values are drawn from ChEMBL document CHEMBL5649167, “The SUV4-20 inhibitor A-196 verifies a role for epigenetics in genomic integrity” (Nat Chem Biol, 2017).
